# In patent US12630528B2, “Amino aryl derivative useful as diacylglycerol acyltransferase 2 inhibitor and use thereof” (LG CHEM, LTD., priority 2019, dated 2026):
# Target: T1, human DGAT2 (Homo sapiens, UniProt Q96PD7)
# T1 construct: FLAG (DYKDDDDK); made in house; host or cells: Sf-21 insect cells (BacPAK baculovirus system); membrane fraction used
# T1 sequence (Q96PD7 1-388): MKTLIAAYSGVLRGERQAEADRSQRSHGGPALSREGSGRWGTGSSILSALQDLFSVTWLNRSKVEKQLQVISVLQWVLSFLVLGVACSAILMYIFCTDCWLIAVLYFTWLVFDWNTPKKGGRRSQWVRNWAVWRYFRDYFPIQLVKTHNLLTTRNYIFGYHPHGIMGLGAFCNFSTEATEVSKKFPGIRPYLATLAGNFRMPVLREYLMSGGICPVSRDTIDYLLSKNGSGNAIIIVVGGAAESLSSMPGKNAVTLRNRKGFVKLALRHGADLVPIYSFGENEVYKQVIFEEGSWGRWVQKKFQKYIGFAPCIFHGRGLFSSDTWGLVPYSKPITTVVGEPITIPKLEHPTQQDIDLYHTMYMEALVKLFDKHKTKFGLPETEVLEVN
# Experiment: DGAT2 enzyme activity inhibition, Phospholipid FlashPlate SPA
# Assay type: biochemical
# Conditions: recombinant human DGAT2 membrane protein from Sf-21 cells; inhibition of [14C]-TG production; 37° C.
# Procedure, shortened: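 Sf-21 membranes expressing recombinant human DGAT2 (2 μg) preincubated with compound (3 nM–10 μM, 1% DMSO) and 50 μM 1,2 sn-oleoyl glycerol, 20 min at 37 °C, then 1 μM [14C]oleoyl-CoA for 15 min. [14C]-TG counted by SPA; inhibition as % of untreated.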
row,Compound,IC50
1,"CCOc1ccccc1O[C@@H]1CCCN(c2cncc(Nc3nccc(-c4cccc(CCC(=O)O)c4)n3)n2)C1 [Example 145, (R)-3-(3-(2-((6-(3-(2-ethoxyphenoxy)piperidin-1-yl)pyrazin-2-yl)amino)pyrimidin-4-yl)phenyl)propanoic Acid]",1.7 µM
2,"CCOc1ccccc1O[C@@H]1CCCN(c2cncc(Nc3cc(C(C)(C)C(=O)O)ccn3)n2)C1 [Example 35, (R)-2-(2-((6-(3-(2-ethoxyphenoxy)piperidin-1-yl)pyrazin-2-yl)amino)pyridin-4-yl)-2-methylpropanoic Acid]",0.44 µM
3,"CCOc1ccccc1O[C@@H]1CCCN(c2cncc(Nc3cccc(CC(C)(C)C(=O)O)n3)n2)C1 [Example 51, (R)-3-(6-((6-(3-(2-ethoxyphenoxy)piperidin-1-yl)pyrazin-2-yl)amino)pyridin-2-yl)-2,2-dimethylpropanoic Acid]",1.9 µM
4,"CCOc1ccccc1O[C@@H]1CCCN(c2cncc(Nc3ccnc(-c4ccc(OC(C)(C)C(=O)O)cc4)n3)n2)C1 [Example 178, (R)-2-(4-(4-((6-(3-(2-ethoxyphenoxy)piperidin-1-yl)pyrazin-2-yl)amino)pyrimidin-2-yl)phenoxy)-2-methylpropanoic Acid]",0.49 µM
5,"CCOc1ccccc1O[C@@H]1CCCN(c2cncc(Nc3ncc(C(=O)O)s3)n2)C1 [Example 1, (R)-2-((6-(3-(2-ethoxyphenoxy)piperidin-1-yl)pyrazin-2-yl)amino)thiazole-5-carboxylic Acid]",6.2 µM
6,"CCOc1cccnc1O[C@@H]1CCCN(c2cncc(Nc3cccc(-c4cccc(OC(C)(C)C(=O)O)c4)n3)n2)C1 [Example 81, (R)-2-(3-(6-((6-(3-((3-ethoxypyridin-2-yl)oxy)piperidin-1-yl)pyrazin-2-yl)amino)pyridin-2-yl)phenoxy)-2-methylpropanoic Acid]",0.2 µM
7,"CCOc1ccccc1O[C@@H]1CCCN(c2cncc(Nc3nccc(-c4cccc(OC(C)(C)C(=O)O)c4)n3)n2)C1 [Example 158, (R)-2-(3-(2-((6-(3-(2-ethoxyphenoxy)piperidin-1-yl)pyrazin-2-yl)amino)pyrimidin-4-yl)phenoxy)-2-methylpropanoic Acid]",1.1 µM
8,"CCOc1ccccc1O[C@@H]1CCCN(c2cncc(Nc3cccc(C(C)(C)C(=O)O)c3)n2)C1 [Example 29, (R)-2-(3-((6-(3-(2-ethoxyphenoxy)piperidin-1-yl)pyrazin-2-yl)amino)phenyl)-2-methylpropanoic Acid]",6.4 µM
9,"CCOc1ccccc1O[C@@H]1CCCN(c2cncc(Nc3cccc(-c4ccc(OC(C)(C)C(=O)O)cc4)n3)n2)C1 [Example 82, (R)-2-(4-(6-((6-(3-(2-ethoxyphenoxy)piperidin-1-yl)pyrazin-2-yl)amino)pyridin-2-yl)phenoxy)-2-methylpropanoic Acid]",0.12 µM
10,"CCOc1ccccc1O[C@@H]1CCCN(c2cncc(Nc3cccc(-c4cc(CC(C)(C)C(=O)O)ccc4F)n3)n2)C1 [Example 78, (R)-3-(3-(6-((6-(3-(2-ethoxyphenoxy)piperidin-1-yl)pyrazin-2-yl)amino)pyridin-2-yl)-4-fluorophenyl)-2,2-dimethylpropanoic Acid]",0.29 µM
11,"CCOc1ccccc1O[C@@H]1CCCN(c2ccnc(Nc3nccc(-c4ccc(CC(C)(C)C(=O)O)cc4)n3)n2)C1 [Example 156, (R)-3-(4-(2-((4-(3-(2-ethoxyphenoxy)piperidin-1-yl)pyrimidin-2-yl)amino)pyrimidin-4-yl)phenyl)-2,2-dimethylpropanoic Acid]",1.2 µM
12,"CCOc1ccccc1O[C@@H]1CCCN(c2cncc(Nc3nccc(Oc4ccc(CC(=O)O)cc4)n3)n2)C1 [Example 162, (R)-2-(4-((2-((6-(3-(2-ethoxyphenoxy)piperidin-1-yl)pyrazin-2-yl)amino)pyrimidin-4-yl)oxy)phenyl)acetic Acid]",0.23 µM
13,"CCOc1cccnc1O[C@@H]1CCCN(c2cncc(Nc3cccc(Oc4cccc(C(C)(C)C(=O)O)c4)n3)n2)C1 [Example 92, (R)-2-(3-((6-((6-(3-((3-ethoxypyridin-2-yl)oxy)piperidin-1-yl)pyrazin-2-yl)amino)pyridin-2-yl)oxy)phenyl)-2-methylpropanoic Acid]",0.3 µM
14,"CCOc1ccccc1O[C@@H]1CCCN(c2cncc(Nc3ncc(C(=O)O)cn3)n2)C1 [Example 114, (R)-2-((6-(3-(2-ethoxyphenoxy)piperidin-1-yl)pyrazin-2-yl)amino)pyrimidine-5-carboxylic Acid]",> 10 µM
15,"CCOc1ccccc1O[C@@H]1CCCN(c2ccnc(Nc3cccc(-c4cccc(CC(C)(C)C(=O)O)c4)n3)n2)C1 [Example 67, (R)-3-(3-(6-((4-(3-(2-ethoxyphenoxy)piperidin-1-yl)pyrimidin-2-yl)amino)pyridin-2-yl)phenyl)-2,2-dimethylpropanoic Acid]",2.4 µM
16,"CCOc1ccccc1O[C@@H]1CCCN(c2ccnc(Nc3nccc(-c4cccc(CC(C)(C)C(=O)O)c4)n3)n2)C1 [Example 150, (R)-3-(3-(2-((4-(3-(2-ethoxyphenoxy)piperidin-1-yl)pyrimidin-2-yl)amino)pyrimidin-4-yl)phenyl)-2,2-dimethylpropanoic Acid]",1.2 µM
17,"CCOc1ccccc1O[C@@H]1CCCN(c2cncc(Nc3ccn(-c4cccc(CC(C)(C)C(=O)O)c4)n3)n2)C1 [Example 69, (R)-3-(3-(3-((6-(3-(2-ethoxyphenoxy)piperidin-1-yl)pyrazin-2-yl)amino)-1H-pyrazol-1-yl)phenyl)-2,2-dimethylpropanoic Acid]",1.1 µM
18,(R)-2-(4-((6-(3-(2-ethoxyphenoxy)pyridin-1-yl)pyrazin-2-yl)amino)phenyl)-2-methylpropanoic Acid [Example 28],> 10 µM
19,"CCOc1ccccc1O[C@@H]1CCCN(c2cncc(Nc3cccc(-c4cccc(OC(C)(C)C(=O)O)c4)n3)n2)C1 [Example 80, (R)-2-(3-(6-((6-(3-(2-ethoxyphenoxy)piperidin-1-yl)pyrazin-2-yl)amino)pyridin-2-yl)phenoxy)-2-methylpropanoic Acid]",0.31 µM
20,"CCOc1ccccc1O[C@@H]1CCCN(c2cncc(Nc3cccc(Oc4cccc(C(C)(C)C(=O)O)c4)n3)n2)C1 [Example 91, (R)-2-(3-((6-((6-(3-(2-ethoxyphenoxy)piperidin-1-yl)pyrazin-2-yl)amino)pyridin-2-yl)oxy)phenyl)-2-methylpropanoic Acid]",0.34 µM
21,"CCOc1cccnc1O[C@@H]1CCCN(c2cncc(Nc3nccc(-c4cccc(OC(C)(C)C(=O)O)c4)n3)n2)C1 [Example 159, (R)-2-(3-(2-((6-(3-((3-ethoxypyridin-2-yl)oxy)piperidin-1-yl)pyrazin-2-yl)amino)pyrimidin-4-yl)phenoxy)-2-methylpropanoic Acid]",0.56 µM
22,"CCOc1ccccc1O[C@@H]1CCCN(c2cncc(Nc3nccc(-c4cccc(C(C)(C)C(=O)O)c4)n3)n2)C1 [Example 141, (R)-2-(3-(2-((6-(3-(2-ethoxyphenoxy)piperidin-1-yl)pyrazin-2-yl)amino)pyrimidin-4-yl)phenyl)-2-methylpropanoic Acid]",1.6 µM
23,"CCOc1cccnc1O[C@@H]1CCCN(c2ccnc(Nc3nccc(-c4ccc(CC(C)(C)C(=O)O)cc4)n3)n2)C1 [Example 157, (R)-3-(4-(2-((4-(3-((3-ethoxypyridin-2-yl)oxy)piperidin-1-yl)pyrimidin-2-yl)amino)pyrimidin-4-yl)phenyl)-2,2-dimethylpropanoic Acid]",0.72 µM
24,"CCOc1ccccc1O[C@@H]1CCCN(c2cncc(Nc3cccc(-c4cnn(CC(C)(C)C(=O)O)c4)n3)n2)C1 [Example 86, (R)-3-(4-(6-((6-(3-(2-ethoxyphenoxy)piperidin-1-yl)pyrazin-2-yl)amino)pyridin-2-yl)-1H-pyrazol-1-yl)-2,2-dimethylpropanoic Acid]",0.3 µM
25,"CCOc1cccnc1O[C@@H]1CCCN(c2cncc(Nc3cccc(-c4ccc(C(C)(C)C(=O)O)cc4)n3)n2)C1 [Example 62, (R)-2-(4-(6-((6-(3-((3-ethoxypyridin-2-yl)oxy)piperidin-1-yl)pyrazin-2-yl)amino)pyridin-2-yl)phenyl)-2-methylpropanoic Acid]",0.17 µM
26,"CCOc1cccnc1O[C@@H]1CCCN(c2cncc(Nc3cccc(-c4ccc(NCC(=O)O)cc4)n3)n2)C1 [Example 74, (R)-(4-(6-((6-(3-((3-ethoxypyridin-2-yl)oxy)piperidin-1-yl)pyrazin-2-yl)amino)pyridin-2-yl)phenyl)glycine]",0.98 µM
27,"CCOc1ccccc1O[C@@H]1CCCN(c2cncc(Nc3ccn(CC(=O)O)n3)n2)C1 [Example 20, (R)-2-(3-((6-(3-(2-ethoxyphenoxy)piperidin-1-yl)pyrazin-2-yl)amino)-1H-pyrazol-1-yl)acetic Acid]",> 10 µM
28,"CCOc1ccccc1O[C@@H]1CCCN(c2cncc(Nc3cncc(-c4cccc(CC(C)(C)C(=O)O)c4)n3)n2)C1 [Example 112, (R)-3-(3-(6-((6-(3-(2-ethoxyphenoxy)piperidin-1-yl)pyrazin-2-yl)amino)pyrazin-2-yl)phenyl)-2,2-dimethylpropanoic Acid]",0.2 µM
29,"CCOc1ccccc1O[C@@H]1CCCN(c2cncc(Nc3cccc(N4CCCC(C(=O)O)C4)n3)n2)C1 (stereo partly drawn) [Example 54, 1-(6-((6-((R)-3-(2-ethoxyphenoxy)piperidin-1-yl)pyrazin-2-yl)amino)pyridin-2-yl)piperidine-3-carboxylic Acid]",0.91 µM
